Measurements published in patent US9617276B2, “Compounds and methods for treating AIDS and HIV infections” (priority 2009, dated 2017).

Experiments:
HIV-1LPV5μM = assay: microbe, parasite or virus in culture; format: cell-based; settings: Human immunodeficiency virus 1, MT4, read-out: EC50 (μM), HIV-1LPV5 μM
Experimental: (§1) The susceptibility of HIV-1LAI and primary HIV-1 isolates to various drugs were determined as described previously (Koh et al. 2003 Antimicrob Agents Chemother 47:3123-9). Briefly, MT-2 cells (2×10^4/ml) were exposed to 100 50% tissue culture infectious doses (TCID50S) of HIV-1LAI, in the presence or absence of various concentrations of drugs in 96-well microculture plates and were incubated at 37° C. for 7 days. After 100 μl of the medium was removed from each well, 3-(4,5-dimetylthiazol-2-yl)-2,5-diphenyltetrazolium bromide (MTT) solution (10 μl, 7.5 mg/ml in phosphate-buffered saline) was added to each well in the plate, followed by incubation at 37° C. for 3 h. […] All assays were performed in duplicate or triplicate. To determine the susceptibility of primary HIV-1 isolates to drugs, phytohemagglutinin-activated peripheral blood mononuclear cells (PHA-PBMCs; 106/ml) were exposed to 50 TCID50S of each. The target cells were exposed to HIV-1104pre or drug-resistant HIV-1 in the presence or absence of various concentrations of drugs and were incubated for 7 days. Upon the conclusion of the culture, the amounts of p24 Gag protein in the supernatants were determined using a fully automated chemiluminescent enzyme immunoassay system (Lumipulse F; Fujirebio Inc., Tokyo, Japan) (Maeda et al. 2001 J Biol Chem 276:35194-200). To determine the drug susceptibility of certain laboratory HIV-1 strains, MT-4 cells were used as target cells. In brief, MT-4 cells (10^5/ml) were exposed to 100 TCID50S of drug-resistant HIV-1 strains in the presence or absence of various concentrations of drugs and on day 7 of culture, the supernatant was harvested and the amounts of p24 Gag protein were determined. […] All assays were performed in duplicate or triplicate.
(§2) Numbers in parentheses represent n-fold changes in EC50s for each isolate compared to the EC50s for wild-type HIV-1NL4-3.

HIV-1SQV5μM = assay: microbe, parasite or virus in culture; format: cell-based; settings: Human immunodeficiency virus 1, MT4, read-out: EC50 (μM), HIV-1SQV5 μM
Experimental: as §1, §2

HIV-1AZV5μM = assay: microbe, parasite or virus in culture; format: cell-based; settings: Human immunodeficiency virus 1, MT4, read-out: EC50 (μM), HIV-1AZV5 μM
Experimental: as §1, §2

HIV-1APV5μM = assay: microbe, parasite or virus in culture; format: cell-based; settings: Human immunodeficiency virus 1, MT4, read-out: EC50 (μM), HIV-1APV5 μM
Experimental: as §1, §2

HIV-1NFV5μM = assay: microbe, parasite or virus in culture; format: cell-based; settings: Human immunodeficiency virus 1, MT4, read-out: EC50 (μM), HIV-1NPV5 μM
Experimental: as §1, §2

HIV-1396-1μM = assay: microbe, parasite or virus in culture; format: cell-based, HIV-1; settings: Human immunodeficiency virus 1, MT4, read-out: EC50 (μM), HIV-1396-1 μM
Experimental: (§3) Briefly, MT-2 cells (2×10^4/ml) were exposed to 100 50% tissue culture infectious doses (TCID50S) of HIV-1LAI, in the presence or absence of various concentrations of drugs in 96-well microculture plates and were incubated at 37° C. for 7 days. After 100 μl of the medium was removed from each well, 3-(4,5-dimetylthiazol-2-yl)-2,5-diphenyltetrazolium bromide (MTT) solution (10 μl, 7.5 mg/ml in phosphate-buffered saline) was added to each well in the plate, followed by incubation at 37° C. for 3 h. […] All assays were performed in duplicate or triplicate. […] To determine the drug susceptibility of certain laboratory HIV-1 strains, MT-4 cells were used as target cells. In brief, MT-4 cells (10^5/ml) were exposed to 100 TCID50S of drug-resistant HIV-1 strains in the presence or absence of various concentrations of drugs and on day 7 of culture, the supernatant was harvested and the amounts of p24 Gag protein were determined. […] All assays were performed in duplicate or triplicate.
as §2

HIV-1216-P50 = assay: microbe, parasite or virus in culture; format: cell-based, HIV-1; settings: Human immunodeficiency virus 1, MT4, read-out: EC50 (μM), HIV-1216-p50
Experimental: as §3, §2

HIV-1246-1μM = assay: microbe, parasite or virus in culture; format: cell-based, HIV-1; settings: Human immunodeficiency virus 1, MT4, read-out: EC50 (μM), HIV-1246-1 μM
Experimental: as §3, §2

HIV-1NL4-3 = assay: p24 Gag inhibition in MT-4 cells, HIV-1NL4-3; format: cell-based; settings: Human immunodeficiency virus 1, MT4, Table 9, mean ± 1 SD, read-out: EC50 (μM), HIV-1NL4-3
Experimental: All assays were performed in duplicate or triplicate. […] All assays were performed in duplicate or triplicate.

HIV-1 = settings: prior inhibitors; read-out: ID50 (the source's name); cited from earlier work
[1] = test system: multidrug-resistant clinical HIV-1 isolates (HIV-1MDR); assay: microbe, parasite or virus in culture; format: cell-based; settings: Human immunodeficiency virus 1, read-out: EC50 with multidrug-resistant clinical HIV-1 isolates (mostly)
Experimental: as §1
(§4) These clinical strains contained 9 to 14 amino acid substitutions in the protease-encoding region, which have reportedly been associated with HIV-1 resistance to various PIs.
(§5) Amino acid substitutions identified in the protease-encoding region compared to the consensus type B sequence cited from the Los Alamos database include L63P in HIV-1ERS104pre; L10I, K14R, L33I, M36I, M46I, F53I, K55R, I62V, L63P, A71V, G73S, V82A, L90M, and I93L in HIV-1MDR/B; L10I, I15V, K20R, L24I, M36I, M46L, I54V, I62V, L63P, K70Q, V82A, and L89M in HIV-1MDR/C; L10I, V11I, T12E, I15V, L19I, R41K, M46L, L63P, A71T, V82A, and L90M in HIV-1MDR/G; L10I, K14R, R41K, M46L, I54V, L63P, A71V, V82A, L90M, I93L in HIV-1MDR/TM; L10I, K43T, M46L, I54V, L63P, A71V, V82A, L90M, and Q92K in HIV-1MDR/MM; L10I, L24I, I33F, E35D, M36I, N37S, M46L, I54V, R57K, I62V, L63P, A71V, G73S, and V82A in HIV-1MDR/JSL. HIV-1ERS104pre served as a source of wild-type HIV-1. EC50s were determined by using PHA-PBMs as target cells, and inhibition of p24 Gag protein production by each drug was used as an end point. Numbers in parentheses represent n-fold changes of EC50s for each isolate compared to EC50s for wild-type HIV-1ERS104pre.

HIV-1MDR/JSL = assay: microbe, parasite or virus in culture; format: cell-based
Experimental: as §1, §4, §5

HIV-1MDR/MM = assay: microbe, parasite or virus in culture; format: cell-based
Experimental: as §1, §4, §5

[2] = test system: HIV-1ERS104pre (wild-type); assay: p24 Gag inhibition in PHA-PBMCs, HIV-1ERS104pre; format: cell-based; settings: mean ± 1 SD
Experimental: as §1, §4, §5

HIV-1MDR/C = format: cell-based
Experimental: as §1, §4, §5

HIV-1MDR/G = format: cell-based
Experimental: as §1, §4, §5

HIV-1MDR/TM = format: cell-based
Experimental: as §1, §4, §5

HIV-1MDR/B = format: cell-based
Experimental: as §1, §4, §5

[3] = compared to wild-type HIV-1ERS104pre

Cc1c(O)cccc1C(=O)N[C@@H](CSc1ccccc1)[C@H](O)CN1C[C@H]2CCCC[C@H]2C[C@H]1C(=O)NC(C)(C)C [NFV, Nelfinavir]
EC50 (HIV-1LPV5μM): 0.32 ± 0.12 µM
EC50 (HIV-1SQV5μM): 0.51 ± 0.081 µM
EC50 (HIV-1AZV5μM): > 1 µM
EC50 (HIV-1APV5μM): 0.3 ± 0.03 µM
EC50 (HIV-1NFV5μM): > 1 µM
EC50 (HIV-1396-1μM): 0.22 ± 0.02 µM
EC50 (HIV-1216-P50): 0.13 ± 0.04 µM
EC50 (HIV-1246-1μM): 0.29 ± 0.006 µM
EC50 (HIV-1NL4-3): 0.04 ± 0.007 µM

COc1ccc(S(=O)(=O)N(CC(C)C)CC(O)C(Cc2ccccc2)NC(=O)OC2COC3OCCC23)cc1 (stereo not drawn) [Compound 2, TMC-126]
IC50 (HIV-1): 1.2 nM

CC(C)(C)NC(=O)[C@@H]1CN(Cc2cccnc2)CCN1C[C@@H](O)C[C@@H](Cc1ccccc1)C(=O)N[C@H]1c2ccccc2C[C@H]1O [IDV, Indinavir]
EC50 [1]: > 1000 nM
EC50 (HIV-1MDR/JSL; Human immunodeficiency virus 1, read-out: EC50 (μM), HIV-1MDR/JSL (NSI)): > 1 µM
n-fold change of EC50, HIV-1MDR/JSL (HIV-1MDR/JSL; [3]): > 23
EC50 (HIV-1MDR/MM; Human immunodeficiency virus 1, read-out: EC50 (μM), HIV-1MDR/MM (NSI)): > 1 µM
n-fold change of EC50, HIV-1MDR/MM (HIV-1MDR/MM; [3]): > 23
EC50 (μM), HIV-1ERS104pre (wild-type SI) [2]: 0.043 ± 0.004 µM
EC50 (μM), HIV-1MDR/C (SI) (HIV-1MDR/C; PHA-PBMCs, p24 Gag): > 1 µM
n-fold change of EC50, HIV-1MDR/C (HIV-1MDR/C; [3]): > 23
EC50 (μM), HIV-1MDR/G (SI) (HIV-1MDR/G; PHA-PBMCs, p24 Gag): 0.34 ± 0.14 µM
n-fold change of EC50, HIV-1MDR/G (HIV-1MDR/G; [3]): (5)
EC50 (μM), HIV-1MDR/TM (SI) (HIV-1MDR/TM; PHA-PBMCs, p24 Gag): > 1 µM
n-fold change of EC50, HIV-1MDR/TM (HIV-1MDR/TM; [3]): > 23
EC50 (μM), HIV-1MDR/B (SI) (HIV-1MDR/B; PHA-PBMCs, p24 Gag): > 1 µM
n-fold change of EC50, HIV-1MDR/B (HIV-1MDR/B; [3]): > 23
